Measurements taken from patent US6664058B2, “Base analogues” (Amersham Biosciences UK Limited, priority 2000, dated 2003).

System: exonuclease free Klenow fragment DNA polymerase I (EFK)
Conditions: 40 μM test compound alone or with 4 μM dNTPαS; 33P 15 mer primer / 24 mer template; one unit EFK; 37° C., 3 minutes
Procedure: Primer Extension Assays to Study the Incorporation of Triphosphate 5 by DNA Polymerases
A primer extension assay was used to evaluate the triphosphate 5 as a substrate for exonuclease free Klenow fragment DNA polymerase I (EFK). The assay used a ^33P 5′ end labelled 15 mer primer hybridised to a 24 mer template. The sequences of the primer and template are:
One picomole ^33P labelled primer was hybridised to 2 picomoles of template in ×2 Klenow buffer (100 mM Tris-HCl pH 7.5, 10 mM MgCl2., 10 mM 2-mercaptoethanol) To this was added either 4 μM dNTPαS or 40 μM (test compound 5c) or a mixture of 4 μM dNTPαS and 40 μM (test compound). One unit EFK and 20 mU inorganic pyrophosphatase were used per reaction. Primer alone, primer plus template plus enzyme controls were also carried out. The reactions were incubated at 37° C. for 3 minutes. Reactions were then stopped by the addition of formamide/EDTA stop solution. Reaction products were separated on a 20% polyacrylamide 7M urea gel and the product fragments sized by comparison with the labelled primer and the products of extensions in the presence of 4 μM dNTPαS after exposure to Kodak Biomax autoradiography film.

Cc1cc2c(nn1)NC(=O)N([C@H]1C[C@H](O)[C@@H](COP(=O)(O)OP(=O)(O)OP(=O)(O)O)O1)C2 [compound 5, 6-(β-D-2-Deoxyribofuranosyl)-5-hydro-3-methyl-8H-pyrimido[4,5-c][1,2]pyridazin-7-one-5′-triphosphate]
natural nucleotide in place of which the test compound is incorporated: incorporated in place of dTTP
